Test results published in patent publication US20190185518A9, “WARHEAD-CONTAINING PEPTIDOMIMETIC MACROCYCLES AS MODULATORS OF BFL-1” (AILERON Therapeutics, Inc., priority 2017, published 2019).
Starred links: 1 amine or outer side, 2 acyl side, 3 side chain; linkers in the order of their positions; H or OH if unused. Positions of bridges follow the written chain, without caps; N, C: chain ends. Non-standard residues stand in square brackets, D forms with d. Residues, ends and D or L forms follow the SMILES beside them. X1 = CC(C)CCC[C@H](N[*:1])C(=O)[*:2]; R8 = C=CCCCCCC[C@@](C)(N)C(=O)O; S5 = C=CCCC[C@](C)(N)C(=O)O; Ac6c = NC1(C(=O)O)CCCCC1; Ac5c = NC1(C(=O)O)CCCC1

target: Bcl-xL (Homo sapiens, UniProt Q07817); assay: Ki determination for Bcl-xL (BCL-2 family binding spectrum); conditions: read-out: Ki BCL-XL
Sequence (Q07817 whole entry, species assumed): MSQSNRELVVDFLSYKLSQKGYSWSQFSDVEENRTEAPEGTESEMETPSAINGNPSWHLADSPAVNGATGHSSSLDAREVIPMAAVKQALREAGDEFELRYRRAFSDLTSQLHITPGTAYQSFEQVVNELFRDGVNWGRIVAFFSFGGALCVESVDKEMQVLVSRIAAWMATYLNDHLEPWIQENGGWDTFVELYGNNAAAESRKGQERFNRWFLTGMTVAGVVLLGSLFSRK
Excerpt: To assess the binding and affinity of compounds that antagonize the interaction between a peptide and an acceptor protein, a fluorescence polarization assay (FPA) utilizing a fluoresceinated peptidomimetic macrocycle derived from a peptidomimetic precursor sequence is used, for example. The FPA technique measures the molecular orientation and mobility using polarized light and fluorescent tracer. […] A compound that antagonizes the interaction between the fluoresceinated peptidomimetic macrocycle and an acceptor protein will be detected in a competitive binding FPA experiment.
For example, putative antagonist compounds (1 nM to 1 mM) and a fluoresceinated peptidomimetic macrocycle (25 nM) are incubated with the acceptor protein (50 nM) in binding buffer (140 mM NaCl, 50 mM Tris-HCL, pH 7.4) for 30 minutes at room temperature. Antagonist binding activity is measured, for example, by fluorescence polarization on a luminescence spectrophotometer (e.g. Perkin-Elmer LS50B). Kd values may be determined by nonlinear regression analysis using, for example, Graphpad Prism software (GraphPad Software, Inc., San Diego, Calif.).

Point of comparison: `CC[C@H](C)[C@H](NC(C)=O)C(=O)N[C@@H](Cc1c[nH]c2ccccc12)C(=O)N[C@H](C(=O)N[C@@H](C)C(=O)N[C@@H](CCC(N)=O)C(=O)N[C@@H](C)C(=O)N[C@@H](CC(C)C)C(=O)N[C@@H](CCCNC(=N)N)C(=O)N[C@]1(C)CCCCCCC=CCCC[C@@](C)(C(=O)N[C@@H](Cc2ccc(O)cc2)C(=O)N[C@@H](Cc2ccc(O)cc2)C(=O)N[C@@H](C)C(N)=O)NC(=O)[C@H](CC(N)=O)NC(=O)[C@H](Cc2ccccc2)NC(=O)[C@H](C)NC(=O)[C@H](CC(=O)O)NC(=O)CNC(=O)[C@H](CCCC(C)C)NC1=O)[C@@H](C)CC` [compound 1702] (Ac-IWIAQALR[R8][X1]GDAFN[S5]YYA-NH2; staple 9-16), Ki 4 nM. Against it:
- CC[C@H](C)[C@H](NC(C)=O)C(=O)N[C@@H](Cc1c[nH]c2ccccc12)C(=O)N[C@H](C(=O)N[C@@H](C)C(=O)N[C@@H](CCC(N)=O)C(=O)N[C@@H](C)C(=O)N[C@@H](CC(C)C)C(=O)N[C@@H](CCCNC(=N)N)C(=O)N[C@]1(C)CCCCCCC=CCCC[C@@](C)(C(=O)N[C@@H](Cc2ccc(O)cc2)C(=O)N[C@@H](Cc2ccc(O)cc2)C(=O)N[C@@H](C)C(N)=O)NC(=O)[C@H](C)NC(=O)[C@H](Cc2ccccc2)NC(=O)[C@H](CCC(=O)O)NC(=O)[C@H](CC(=O)O)NC(=O)CNC(=O)[C@H]([C@@H](C)CC)NC1=O)[C@@H](C)CC [compound 1643] (Ac-IWIAQALR[R8]IGDEFA[S5]YYA-NH2; staple 9-16) — 3.9-fold higher, 15.4 nM
- CC[C@H](C)[C@H](NC(C)=O)C(=O)N[C@@H](Cc1c[nH]c2ccccc12)C(=O)N[C@H](C(=O)N[C@@H](C)C(=O)N[C@@H](C)C(=O)N[C@@H](C)C(=O)N[C@@H](CC(C)C)C(=O)N[C@@H](CCCNC(=N)N)C(=O)N[C@]1(C)CCCCCCC=CCCC[C@@](C)(C(=O)N[C@@H](Cc2ccc(O)cc2)C(=O)N[C@@H](Cc2ccc(O)cc2)C(=O)N[C@@H](C)C(N)=O)NC(=O)[C@H](CC(N)=O)NC(=O)[C@H](Cc2ccccc2)NC(=O)[C@H](C)NC(=O)[C@H](CC(=O)O)NC(=O)CNC(=O)[C@H]([C@@H](C)CC)NC1=O)[C@@H](C)CC [compound 1653] (Ac-IWIAAALR[R8]IGDAFN[S5]YYA-NH2; staple 9-16) — 6.4-fold higher, 25.6 nM
- CC[C@H](C)[C@H](NC(C)=O)C(=O)N[C@@H](Cc1c[nH]c2ccccc12)C(=O)N[C@H](C(=O)N[C@@H](C)C(=O)N[C@@H](CCC(N)=O)C(=O)N[C@@H](C)C(=O)N[C@@H](C)C(=O)N[C@@H](CCCNC(=N)N)C(=O)N[C@]1(C)CCCCCCC=CCCC[C@@](C)(C(=O)N[C@@H](Cc2ccc(O)cc2)C(=O)N[C@@H](Cc2ccc(O)cc2)C(=O)N[C@@H](C)C(N)=O)NC(=O)[C@H](CC(N)=O)NC(=O)[C@H](C)NC(=O)[C@H](C)NC(=O)[C@H](CC(=O)O)NC(=O)CNC(=O)[C@H]([C@@H](C)CC)NC1=O)[C@@H](C)CC [compound 1664] (Ac-IWIAQAAR[R8]IGDAAN[S5]YYA-NH2; staple 9-16) — 38-fold higher, 154 nM
- CC[C@H](C)[C@H](NC(C)=O)C(=O)N[C@@H](Cc1c[nH]c2ccccc12)C(=O)N[C@H](C(=O)N[C@@H](C)C(=O)N[C@@H](CCC(N)=O)C(=O)N[C@@H](C)C(=O)N[C@@H](CC(C)C)C(=O)N[C@@H](CCCNC(=N)N)C(=O)N[C@]1(C)CCCCCCC=CCCC[C@@](C)(C(=O)N[C@@H](Cc2ccc(O)cc2)C(=O)N[C@@H](Cc2ccc(O)cc2)C(=O)N[C@@H](C)C(N)=O)NC(=O)[C@H](CC(N)=O)NC(=O)[C@H](Cc2ccccc2)NC(=O)[C@H](C)NC(=O)[C@H](CC(=O)O)NC(=O)[C@H](C)NC(=O)[C@H]([C@@H](C)CC)NC1=O)[C@@H](C)CC [compound 1665] (Ac-IWIAQALR[R8]IADAFN[S5]YYA-NH2; staple 9-16) — 1.9-fold higher, 7.7 nM
- CC[C@H](C)[C@H](NC(C)=O)C(=O)N[C@@H](Cc1c[nH]c2ccccc12)C(=O)N[C@H](C(=O)N[C@@H](C)C(=O)N[C@@H](CCC(N)=O)C(=O)N[C@@H](C)C(=O)N[C@@H](CC(C)C)C(=O)N[C@@H](CCCNC(=N)N)C(=O)N[C@]1(C)CCCCCCC=CCCC[C@@](C)(C(=O)N[C@@H](Cc2ccc(O)cc2)C(=O)N[C@@H](Cc2ccc(O)cc2)C(=O)N[C@@H](C)C(N)=O)NC(=O)[C@H](CC(N)=O)NC(=O)[C@H](Cc2ccccc2)NC(=O)[C@H](CCC(N)=O)NC(=O)[C@H](CC(=O)O)NC(=O)CNC(=O)[C@H](Cc2ccccc2)NC1=O)[C@@H](C)CC [compound 1670] (Ac-IWIAQALR[R8]FGDQFN[S5]YYA-NH2; staple 9-16) — 6.4-fold higher, 25.6 nM
- CC[C@H](C)[C@H](NC(C)=O)C(=O)N[C@@H](Cc1c[nH]c2ccccc12)C(=O)N[C@@H](Cc1ccccc1)C(=O)N[C@@H](C)C(=O)N[C@@H](CCC(N)=O)C(=O)N[C@@H](C)C(=O)N[C@@H](CC(C)C)C(=O)N[C@@H](CCCNC(=N)N)C(=O)N[C@]1(C)CCCCCCC=CCCC[C@@](C)(C(=O)N[C@@H](Cc2ccc(O)cc2)C(=O)N[C@@H](Cc2ccc(O)cc2)C(=O)N[C@@H](C)C(N)=O)NC(=O)[C@H](CC(N)=O)NC(=O)[C@H](Cc2ccccc2)NC(=O)[C@H](CCC(N)=O)NC(=O)[C@H](CC(=O)O)NC(=O)CNC(=O)[C@H]([C@@H](C)CC)NC1=O [compound 1672] (Ac-IWFAQALR[R8]IGDQFN[S5]YYA-NH2; staple 9-16) — 6.5-fold higher, 25.9 nM
- CC[C@H](C)[C@H](NC(C)=O)C(=O)N[C@@H](Cc1c[nH]c2ccccc12)C(=O)NC1(C(=O)N[C@@H](C)C(=O)N[C@@H](CCC(N)=O)C(=O)N[C@@H](C)C(=O)N[C@@H](CC(C)C)C(=O)N[C@@H](CCCNC(=N)N)C(=O)N[C@]2(C)CCCCCCC=CCCC[C@@](C)(C(=O)N[C@@H](Cc3ccc(O)cc3)C(=O)N[C@@H](Cc3ccc(O)cc3)C(=O)N[C@@H](C)C(N)=O)NC(=O)[C@H](CC(N)=O)NC(=O)[C@H](Cc3ccccc3)NC(=O)[C@H](C)NC(=O)[C@H](CC(=O)O)NC(=O)CNC(=O)[C@H]([C@@H](C)CC)NC2=O)CCCCC1 [compound 1714] (Ac-IW[Ac6c]AQALR[R8]IGDAFN[S5]YYA-NH2; staple 9-16) — 1.9-fold higher, 7.7 nM
- CC[C@H](C)[C@H](NC(C)=O)C(=O)N[C@@H](Cc1c[nH]c2ccccc12)C(=O)NC1(C(=O)N[C@@H](C)C(=O)N[C@@H](CCC(N)=O)C(=O)N[C@@H](C)C(=O)N[C@@H](CC(C)C)C(=O)N[C@@H](CCCNC(=N)N)C(=O)N[C@]2(C)CCCCCCC=CCCC[C@@](C)(C(=O)N[C@@H](Cc3ccc(O)cc3)C(=O)N[C@@H](Cc3ccc(O)cc3)C(=O)N[C@@H](C)C(N)=O)NC(=O)[C@H](CC(N)=O)NC(=O)[C@H](Cc3ccccc3)NC(=O)[C@H](C)NC(=O)[C@H](CC(=O)O)NC(=O)CNC(=O)[C@H]([C@@H](C)CC)NC2=O)CCCC1 [compound 1715] (Ac-IW[Ac5c]AQALR[R8]IGDAFN[S5]YYA-NH2; staple 9-16) — 2.1-fold higher, 8.4 nM
- CC[C@H](C)[C@H](NC(C)=O)C(=O)N[C@@H](CC(=O)O)C(=O)N[C@H](C(=O)N[C@@H](C)C(=O)N[C@@H](C)C(=O)N[C@@H](C)C(=O)N[C@@H](CC(C)C)C(=O)N[C@@H](CCCNC(=N)N)C(=O)N[C@]1(C)CCCCCCC=CCCC[C@@](C)(C(=O)N[C@@H](Cc2ccc(O)cc2)C(=O)N[C@@H](Cc2ccc(O)cc2)C(=O)N[C@@H](C)C(N)=O)NC(=O)[C@H](CC(N)=O)NC(=O)[C@H](Cc2ccccc2)NC(=O)[C@H](C)NC(=O)[C@H](CC(=O)O)NC(=O)CNC(=O)[C@H]([C@@H](C)CC)NC1=O)[C@@H](C)CC [compound 1725] (Ac-IDIAAALR[R8]IGDAFN[S5]YYA-NH2; staple 9-16) — 9.1-fold higher, 36.3 nM
